From US10556889B1, “Salvinorin derivatives” (Blue Sky Pharmaceuticals, LLC, priority 2018, dated 2020) come the findings set out here.

For assay [1], the target named is T1, uOR (Mus musculus, UniProt P42866). Kind of assay: β-arrestin recruitment to uOR / receptor internalization. The settings on record: for Max Fold Efficacy: maximum signal/background ratio for uOR receptor internalization at the EC50; for EC50: recruitment of beta-arrestin to interact with uOR, bound given in μM, read-out: β-arrestin Recruitment EC50 ± SEM. The class given is cell-based. Also noted: expressed in transfected cells. The text has this:
The data provided in Tables 1A and 1B below were obtained using standard analytical techniques known to those skilled in the art. Such techniques are described in detail in C.
[…] were transiently transfected (electroporation) with combinations of cDNA for hemagglutinin (HA-N terminus)-tagged uOR, beta-arrestin2 tagged with green fluorescent protein, mouse uOR tagged at the C terminus with yellow fluorescent protein and GRK-2. […] After addition of drug, cells were visualized using confocal microscopy. Multiple cells were recorded per dish after more than four separate transfection experiments—representative cells are shown in the manuscript.
The “β-arrestin Recruitment EC50±SEM” column in Table 2 below represents the degree to which each tested compound recruited beta-arrestin to interact with uOR. As will be appreciated by those skilled in the art, EC50 refers to the concentration of a drug which induces a response halfway between the baseline and maximum after a specified exposure time. In this instance, lower values indicate greater potency of the molecule, and this is […].
As will also be understood by those skilled in the art, “Max Fold Efficacy” refers to the maximum signal/background ratio that an agonist will induce or, conversely, that an antagonist will inhibit an agonist from inducing a response. In Table 2 below, the “Max Fold Efficacy” column indicates the strength of the signal increase over the control/background measurement for uOR receptor internalization at the E.C. 50.

For assay [2], the target named is T1, uOR. Kind of assay: Agonist induced ERK 1/2 phosphorylation (efficacy and potency relative to DAMGO).

T1 sequence (P42866 whole entry): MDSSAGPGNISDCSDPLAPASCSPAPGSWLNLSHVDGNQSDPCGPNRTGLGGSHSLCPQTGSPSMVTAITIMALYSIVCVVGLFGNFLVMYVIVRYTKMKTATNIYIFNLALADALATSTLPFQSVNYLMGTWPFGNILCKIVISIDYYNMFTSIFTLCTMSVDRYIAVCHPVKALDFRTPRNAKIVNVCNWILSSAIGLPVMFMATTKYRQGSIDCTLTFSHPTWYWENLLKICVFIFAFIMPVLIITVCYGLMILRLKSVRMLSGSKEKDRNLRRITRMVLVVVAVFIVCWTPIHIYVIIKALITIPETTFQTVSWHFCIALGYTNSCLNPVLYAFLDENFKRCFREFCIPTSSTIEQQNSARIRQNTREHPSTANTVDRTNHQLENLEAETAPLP

Turning to `COC(=O)[C@@H]1C[C@H](OC(=O)c2ccc(Cl)nc2)C(=O)[C@H]2[C@@]1(C)CC[C@H]1C(=O)O[C@H](c3ccoc3)C[C@]21C` [Formula Id-ii], at uOR [1], the “Max Fold Efficacy” value came to 9.3 and the EC50 (usually the midpoint of the concentration-response curve) is more than 10 µM. Besides, the EC50 on uOR [2] is 373 nM.
For `COC(=O)[C@@H]1C[C@H](OC(=O)c2cc(C)cs2)C(=O)[C@H]2[C@@]1(C)CC[C@H]1C(=O)O[C@H](c3ccoc3)C[C@]21C` [Formula Id-iii] the same measures were 6.1, more than 10 µM and 377 nM.
